Our source for the Inhibition of currents and inhibition values is article PMC12549899 (Nature Communications, 2025).

In the assay the target is T1, DrOTOP1 L385W (Danio rerio, UniProt Q7ZWK8, L385W).
T1 construct: A previously generated codon-optimized full-length DrOTOP1[8]; (UniProt: Q7ZWK8) construct; expressed in transfected cells; host or cells: HEK-293 (CRL-1573, ATCC)
T1 sequence (Q7ZWK8 1-586 L385W): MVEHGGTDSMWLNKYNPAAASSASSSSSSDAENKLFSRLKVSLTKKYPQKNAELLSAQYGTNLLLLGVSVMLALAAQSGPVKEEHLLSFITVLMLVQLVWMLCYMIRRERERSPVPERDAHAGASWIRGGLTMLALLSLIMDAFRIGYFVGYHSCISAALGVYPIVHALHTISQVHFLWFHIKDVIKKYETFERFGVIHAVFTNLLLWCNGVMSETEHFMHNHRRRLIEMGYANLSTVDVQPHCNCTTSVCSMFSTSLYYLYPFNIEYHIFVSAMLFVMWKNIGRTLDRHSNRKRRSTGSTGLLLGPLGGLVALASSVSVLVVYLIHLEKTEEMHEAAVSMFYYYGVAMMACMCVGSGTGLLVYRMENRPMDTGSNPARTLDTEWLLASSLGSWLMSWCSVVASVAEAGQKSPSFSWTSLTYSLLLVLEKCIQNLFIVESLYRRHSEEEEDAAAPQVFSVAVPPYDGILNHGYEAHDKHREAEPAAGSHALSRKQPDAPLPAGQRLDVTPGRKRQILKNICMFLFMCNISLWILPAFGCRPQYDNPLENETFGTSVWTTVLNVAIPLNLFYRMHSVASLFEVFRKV
The assay is described as follows: Whole-cell patch-clamp, inhibition of acid-evoked currents, DrOTOP1 L385W. The assay is classed as cell-based, zebrafish (Danio rerio). The conditions noted are these: single cells or mean; for Inhibition of currents: 10 µM. The source says: To functionally test the significance of the two binding sites identified by cryo-EM, we generated point mutations of DrOTOP1 using the binding poses and conformational changes observed in DrOTOP1_C2.2 to guide our mutations. As per the binding pose that best fits our cryo-EM density, C2.2 forms the following interactions in the outer site: hydrophobic packing against many non-polar residues W126, G130, M133, L134, F271, F570, and M573, and π-stacking with W532 (Fig. 5A). In addition, C2.2 could potentially form H-bonds with E267, if the sidechain is protonated or a water bridge is present, and with H574 if it moves closer (Fig. 5A). Likewise, C2.36 presents a heterocyclic nitrogen that can potentially form a H-bond with E267, similarly, provided a protonation or water bridge is present (Fig. 5B). In addition, C2.36 forms a T-shaped π-stacking interaction with H574, whose sidechain has rotated 90 degrees (compared to DrOTOP1_apo), presumably to accommodate the interaction (Fig. 5B). Considering other inhibitors discovered from the second round of screening, many contain functional groups like the carbonyl groups of Group 1 molecules and the heterocyclic nitrogen atoms of Group 2 molecules (Supplementary Fig. 3E), that can potentially form similar H-bonds with E267 as C2.2 and C2.36, assuming the binding modes are similar. In the central site, C2.2 binds with the following interactions: hydrophobic packing with residues V201, F271, A274, V278, and A388, π-stacking with F277, and H-bonding with E384 (Fig. 5C).
We next tested mutations of the central site (L205W, A274W, F277A, E384A L385W, A388W). V201W and S389W, two additional central site mutations, were excluded from the study due to complete loss of channel activity. […]
Whole-cell patch-clamp recording was performed as previously described[6],[22],[25]. Recordings were made with an Axopatch 200B amplifier, digitized with a Digidata 1322a 16-bit data acquisition system, acquired with pClamp 8.2 and analyzed with Clampfit 10 (Molecular Devices). […]

Several values for one entry are separate records, joined by “and”; a condition that tells them apart may be missing. Equal entries are not always repeated.

For `C=C(C)COc1ccccc1NC(=O)c1nc[nH]c1C` [C2.2], the inhibition at 10 µM turned out to be 71%. This compound also had an Inhibition of currents (mean) of 74.03%. Besides, for the setting “single cells”, the Inhibition of currents was 74.8228% and 76.1135% and 70.5882% and 77.6399%.
